Reference: patent publication US12692221B2 (priority 2024, dated 2026)

Legend:
MAO-A = biological target: T1, MAO-A (Rattus norvegicus, UniProt P21396); test: Radioligand binding MAO-A (antagonist radioligand), [^3H]Ro 41-1049, rat cerebral cortex
T1 construct: from tissue; host or cells: rat cerebral cortex
T1 sequence (P21396 1-526): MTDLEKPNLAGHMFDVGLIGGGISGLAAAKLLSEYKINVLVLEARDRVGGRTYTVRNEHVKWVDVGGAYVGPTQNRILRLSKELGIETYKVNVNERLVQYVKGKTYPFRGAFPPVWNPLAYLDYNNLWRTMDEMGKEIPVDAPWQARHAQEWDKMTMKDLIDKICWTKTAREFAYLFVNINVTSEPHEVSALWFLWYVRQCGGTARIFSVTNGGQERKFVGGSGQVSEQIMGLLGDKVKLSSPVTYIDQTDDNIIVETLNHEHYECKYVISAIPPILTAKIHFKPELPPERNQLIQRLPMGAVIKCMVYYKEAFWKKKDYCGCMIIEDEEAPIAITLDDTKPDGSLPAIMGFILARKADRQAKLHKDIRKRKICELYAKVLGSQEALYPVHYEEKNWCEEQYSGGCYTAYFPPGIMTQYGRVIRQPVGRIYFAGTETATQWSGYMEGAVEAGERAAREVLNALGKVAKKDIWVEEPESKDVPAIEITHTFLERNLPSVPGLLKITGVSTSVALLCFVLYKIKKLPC

[1] = Photoabsorption 290-700 nm, molar extinction coefficient (photoliability); format: physicochemical; conditions: wavelength of maximal absorption between 290 nm and 700 nm
Na^+ channel (site 2) = conditions: Na+ channel (site 2) (antagonist radioligand); footnote: Sodium Channel Site2 (Non-selective) Rat Ion Channel Batrachotoxin Mass Spectr. Binding
delta (DOP) (h) = biological target: T2, delta (DOP) (h) (Homo sapiens, UniProt P41143); test: Radioligand binding delta (DOP) (h) (agonist radioligand), [^3H]DALE, Chem-1 RBL; conditions: delta (DOP) (h) (agonist radiolig.)
T2 construct: expressed in transfected cells; host or cells: Chem-1 RBL
Procedure: (§1) Methods—Binding Assays: In vitro binding assays were performed using human recombinant receptors expressed in mammalian cell lines. Receptors were expressed in either HEK-293 or CHO cells depending on the target, and assay conditions (radioligand, concentration, nonspecific competitor, temperature, and incubation time) were optimized for each receptor. All assays were conducted in triplicate, and specific binding was quantified by scintillation counting as the detection method for each listed assay.
(§2) Specific binding was expressed as a percentage of control-specific binding, and percent inhibition was calculated using the formula in Ex. 8 above. Half-maximal inhibitory concentrations (IC50) were determined by non-linear regression analysis of the inhibition curves using the Hill equation (see Ex. 8). Inhibition constants (Ki) were calculated using the Cheng-Prusoff equation (see Ex. 8). KD values used in these calculations had been previously established for each receptor under the assay conditions (see Table 6). Data analysis was performed using software developed at Cerep and validated against SigmaPlot 4.0 for Windows.

M1 (h) = biological target: T3, M1 (h) (Homo sapiens, UniProt P11229); test: Radioligand binding M1 (h) (antagonist radioligand), [^3H]pirenzepine, CHO cells
T3 construct: expressed in transfected cells; host or cells: CHO cells
T3 sequence (P11229 1-460): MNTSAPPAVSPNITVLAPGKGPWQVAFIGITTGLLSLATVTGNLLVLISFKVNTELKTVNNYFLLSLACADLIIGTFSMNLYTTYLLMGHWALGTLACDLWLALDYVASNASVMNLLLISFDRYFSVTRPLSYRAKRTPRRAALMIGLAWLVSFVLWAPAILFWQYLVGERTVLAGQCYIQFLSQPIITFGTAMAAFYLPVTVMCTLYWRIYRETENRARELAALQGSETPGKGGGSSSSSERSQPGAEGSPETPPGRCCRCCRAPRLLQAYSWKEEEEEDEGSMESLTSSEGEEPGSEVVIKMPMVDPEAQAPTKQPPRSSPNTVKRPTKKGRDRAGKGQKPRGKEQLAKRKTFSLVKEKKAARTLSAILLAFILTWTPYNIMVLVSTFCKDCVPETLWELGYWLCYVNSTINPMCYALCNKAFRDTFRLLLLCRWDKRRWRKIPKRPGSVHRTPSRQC
Procedure: as §1, §2

5-HT1B (h) = biological target: T4, 5-HT1B (h) (Homo sapiens, UniProt P28222); test: Radioligand binding 5-HT1B (h) (antagonist radioligand), [^3H]GR125743, Chem-1 RBL cells
T4 construct: expressed in transfected cells; host or cells: Chem-1 RBL cells

5-HT2A [2] = biological target: T5, 5-HT2A (Homo sapiens, UniProt P28223); test: Calcium flux agonist assay, 293T cells; format: cell-based; set-up: expressed in transfected cells; host or cells: Human Embryonic Kidney (293T) cells, transient; conditions: for Emax: HEK-293T, calcium flux, 5-HT2A, normalized to maximum 5-HT response
dopamine transporter(h) = biological target: T6, dopamine transporter(h) (Homo sapiens, UniProt Q01959); test: Radioligand binding DA transporter (h) (antagonist radioligand), [^3H]BTCP, CHO cells
T6 construct: expressed in transfected cells; host or cells: CHO cells
Procedure: as §1, §2

5-HT2A [3] = biological target: T5, 5-HT2A; test: IP-One HTRF IP-1 accumulation functional assay, 5-HT2A-expressing HEK293; format: cell-based; set-up: host or cells: HEK293
Procedure: Methods (5-HT2A and 5-HT2C IP-One Functional Activity Assays): Intracellular accumulation of IP-1 was measured using an IP-One HTRF assay kit (Cat. #62IPAPEJ, Cisbio) at WuXi AppTec Co. Ltd. (Hong Kong) Discovery Biology Unit according to their standard protocols. Briefly, the reference compounds and screening compounds were 3.16-fold serially diluted in 100% DMSO for 10 points using Bravo. 70 nL of compounds were added to the assay plate using Echo555. Added 14 μL/7500 cells/well of 5-HT2A-expressing HEK293 or 5-HT2C-expressing HEK293 to the assay plate and incubate for 60 min at 37° C. Added 3 μL of IP-1 d2 Reagent working solution and 3 μL of IP-1 Tb Cryptate Antibody working solution to all wells. The plates were incubated for 1 hour at room temperature and read for fluorescence at 620 nm and 665 nm on an EnVision Multimode Plate Reader (PerkinElmer). The ratio of the acceptor and donor emission signals (665/620) were calculated for each individual well and substituted into the standard curve to obtain the log concentration of IP level. After converting to the antilog base IP-1, the average background control signal was subtracted from each well and values were normalized to the maximal response of 5-HT at 3 μM (100%). % MAX was calculated by taking the average normalized maximal response for each compound at the highest concentration tested. The data were analyzed using the four-parameter nonlinear regression curve-fitting function in GraphPad Prism 5 (GraphPad Software, San Diego, CA) to generate potency (EC50) values. The represented plots show normalized IP-1 values versus compound concentrations; the corresponding numerical data are parameter estimates for the concentration-response curve using the four-parameter nonlinear regression curve-fitting function in GraphPad Prism 10.

T5 sequence (P28223 whole entry, looked up): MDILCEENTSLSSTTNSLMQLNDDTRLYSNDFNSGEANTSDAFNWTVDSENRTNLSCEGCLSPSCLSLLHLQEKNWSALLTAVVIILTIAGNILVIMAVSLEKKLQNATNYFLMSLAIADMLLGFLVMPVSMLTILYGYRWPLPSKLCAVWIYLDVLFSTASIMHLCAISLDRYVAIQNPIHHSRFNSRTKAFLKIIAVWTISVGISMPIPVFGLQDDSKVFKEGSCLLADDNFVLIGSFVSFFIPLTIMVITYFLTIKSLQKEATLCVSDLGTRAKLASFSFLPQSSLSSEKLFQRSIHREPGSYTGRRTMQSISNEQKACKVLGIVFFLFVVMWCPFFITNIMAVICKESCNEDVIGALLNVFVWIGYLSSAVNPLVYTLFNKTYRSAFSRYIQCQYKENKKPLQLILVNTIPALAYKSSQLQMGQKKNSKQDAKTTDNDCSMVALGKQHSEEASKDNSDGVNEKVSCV
T6 sequence (Q01959 whole entry): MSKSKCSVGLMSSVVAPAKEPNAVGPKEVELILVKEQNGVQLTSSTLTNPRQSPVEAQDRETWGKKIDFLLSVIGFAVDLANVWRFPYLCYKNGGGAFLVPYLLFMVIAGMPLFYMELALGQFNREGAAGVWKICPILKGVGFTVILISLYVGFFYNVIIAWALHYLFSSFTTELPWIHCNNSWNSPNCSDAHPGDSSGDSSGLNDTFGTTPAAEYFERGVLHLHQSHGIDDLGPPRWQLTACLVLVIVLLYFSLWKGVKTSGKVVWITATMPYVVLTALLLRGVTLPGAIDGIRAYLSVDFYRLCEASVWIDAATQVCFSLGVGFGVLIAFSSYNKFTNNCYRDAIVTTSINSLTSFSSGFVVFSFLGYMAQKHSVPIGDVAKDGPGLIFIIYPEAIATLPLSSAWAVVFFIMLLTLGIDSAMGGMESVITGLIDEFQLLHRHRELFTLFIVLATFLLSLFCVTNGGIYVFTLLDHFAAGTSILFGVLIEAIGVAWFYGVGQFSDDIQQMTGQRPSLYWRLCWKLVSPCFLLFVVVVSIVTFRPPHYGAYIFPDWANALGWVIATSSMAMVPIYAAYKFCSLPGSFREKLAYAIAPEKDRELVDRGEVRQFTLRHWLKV
T2 sequence (P41143 whole entry): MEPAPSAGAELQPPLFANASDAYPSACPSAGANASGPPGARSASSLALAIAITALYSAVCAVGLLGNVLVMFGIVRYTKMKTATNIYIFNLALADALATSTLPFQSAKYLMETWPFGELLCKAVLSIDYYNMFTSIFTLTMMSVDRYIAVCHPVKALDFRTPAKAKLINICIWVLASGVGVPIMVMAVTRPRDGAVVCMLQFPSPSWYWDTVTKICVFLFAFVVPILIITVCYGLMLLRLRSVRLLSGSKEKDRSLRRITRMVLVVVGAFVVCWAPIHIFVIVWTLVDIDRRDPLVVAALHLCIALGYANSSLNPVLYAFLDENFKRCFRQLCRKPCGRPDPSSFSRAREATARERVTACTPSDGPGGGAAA
T4 sequence (P28222 whole entry): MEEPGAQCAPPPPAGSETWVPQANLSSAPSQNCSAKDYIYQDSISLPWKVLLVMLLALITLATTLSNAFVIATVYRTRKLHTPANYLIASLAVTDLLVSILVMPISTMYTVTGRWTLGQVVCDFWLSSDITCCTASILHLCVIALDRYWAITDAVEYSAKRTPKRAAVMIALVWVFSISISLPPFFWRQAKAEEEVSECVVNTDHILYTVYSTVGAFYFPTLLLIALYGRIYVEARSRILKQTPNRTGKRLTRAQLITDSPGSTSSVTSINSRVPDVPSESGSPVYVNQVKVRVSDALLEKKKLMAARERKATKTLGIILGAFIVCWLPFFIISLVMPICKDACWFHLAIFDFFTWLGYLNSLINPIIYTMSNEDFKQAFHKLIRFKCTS

## COCc1cc(CCN)c(O)cc1CC(C)C [2CiBu-2OH-5MM, 2-(2-aminoethyl)-5-isobutyl-4-(methoxymethyl)phenol]
MAO-A
  Mean Percent Inhibition of Control Specific Binding: 7.0%
[1]
  MEC: 380.8 L/mol/cm
Na^+ channel (site 2)
  Mean Percent Inhibition of Control Specific Binding: 66%
Delta (DOP) (h)
  Mean Percent Inhibition of Control Specific Binding: 19.5%
M1 (h)
  Mean Percent Inhibition of Control Specific Binding: 4.9%
5-HT1B (h)
  Mean Percent Inhibition of Control Specific Binding: 12.6%
5-HT2A [2]
  EC50: 55.9 nM
  Emax: 115%
Dopamine transporter(h)
  Mean Percent Inhibition of Control Specific Binding: 22.3%

## COCCc1cc(CCN)c(OC)cc1Br [Compound 2CB-5ME, reference compound]
MAO-A
  Mean Percent Inhibition of Control Specific Binding: 5.4%
5-HT2A [3]
  EC50: 227 nM
Na^+ channel (site 2)
  Mean Percent Inhibition of Control Specific Binding: 46.9%
Delta (DOP) (h)
  Mean Percent Inhibition of Control Specific Binding: 9.7%
M1 (h)
  Mean Percent Inhibition of Control Specific Binding: 55.4%
5-HT1B (h)
  Mean Percent Inhibition of Control Specific Binding: 91.4%
Dopamine transporter(h)
  Mean Percent Inhibition of Control Specific Binding: 6.2%

## COCc1cc(CCN)c(OC)cc1CC(C)C [Compound 2CiBu-5MM, 2-[4-isobutyl-2-methoxy-5-(methoxymethyl)phenyl]ethanamine]
MAO-A
  Mean Percent Inhibition of Control Specific Binding: 4.1%
5-HT2A [3]
  EC50: 341 nM
[1]
  MEC: 283.6 L/mol/cm
Na^+ channel (site 2)
  Mean Percent Inhibition of Control Specific Binding: 70.4%
Delta (DOP) (h)
  Mean Percent Inhibition of Control Specific Binding: 11.9%
M1 (h)
  Mean Percent Inhibition of Control Specific Binding: 52.6%
5-HT1B (h)
  Mean Percent Inhibition of Control Specific Binding: 57.3%
5-HT2A [2]
  EC50: 42.2 nM
  Emax: 111%
Dopamine transporter(h)
  Mean Percent Inhibition of Control Specific Binding: 7.7%

## COCc1cc(CCN)c(OC)cc1Br [Compound 2CB-5MM, 2-(4-bromo-2-methoxy-5-(methoxymethyl)phenyl)ethan-1-amine]
MAO-A
  Mean Percent Inhibition of Control Specific Binding: 9.3%
5-HT2A [3]
  EC50: 59.1 nM
[1]
  MEC: 781.9 L/mol/cm
Na^+ channel (site 2)
  Mean Percent Inhibition of Control Specific Binding: 21.6%
Delta (DOP) (h)
  Mean Percent Inhibition of Control Specific Binding: 8.5%
M1 (h)
  Mean Percent Inhibition of Control Specific Binding: 43.4%
5-HT1B (h)
  Mean Percent Inhibition of Control Specific Binding: 74.2%
5-HT2A [2]
  EC50: 0.68 nM
  Emax: 114%
Dopamine transporter(h)
  Mean Percent Inhibition of Control Specific Binding: 10.7%
